Laboratory results reported in article PMC11882969 (Nature Communications, 2025).
Several values for one entry are separate records, joined by “and”; a condition that tells them apart may be missing. Equal entries are not always repeated.

Columns and labels:
[1] = Dynamic light scattering, colloidal aggregation; assay type: physicochemical; conditions: Log[compound, replicates, sheet FigS2b
Method: Samples were prepared as 8-point half-log dilutions in filtered 50 mM KPi buffer, pH 7.0 with final DMSO concentration at 1% (v/v). Colloidal particle formation was measured using DynaPro Plate Reader II (Wyatt Technologies). All compounds were screened in triplicate.

[2] = system: Malate dehydrogenase; assay: Enzyme inhibition counter-screen, MDH; assay type: biochemical; conditions: Rep 1-3 mean; sheet FigureS2c
Method: Enzyme inhibition assays to test for colloidal inhibition were performed at room temperature using CLARIOstar Plate Reader (BMG Labtech). Samples were prepared in 50 mM KPi buffer, pH 7.0 with final DMSO concentration at 1% (v/v). Compounds were incubated with 2 nM AmpC β-lactamase (AmpC) or Malate dehydrogenase (MDH) for 5 min. AmpC reactions were initiated by the addition of 50 μM CENTA chromogenic substrate (219475, Calbiochem). […] MDH reactions were initiated by the addition of 200 μM nicotinamide adenine dinucleotide (NADH) (54839, Sigma Aldrich) and 200 μM oxaloacetic acid (324427, Sigma Aldrich). The change in absorbance was monitored at 340 nm for 60 sec. Initial rates were divided by the DMSO control rate to determine % enzyme activity. Each compound was screened at 100μM in triplicate for three independent experiments, if enzyme inhibition greater than 30% was observed, 8-point half-log concentrations were performed in triplicate for three independent experiments. Data was analyzed using GraphPad Prism 9.1.

Structure (SMILES): COC(=O)C(NC(=O)c1cc(C)n(-c2cccc(F)c2)n1)c1cccs1 (stereo not drawn) [‘51486]
- DLS scattering intensity ([1]; uM] 0): 759657 and 686584 and 965322
- DLS scattering intensity ([1]; uM] 0.5): 1020197 and 797976 and 985220
- DLS scattering intensity ([1]; uM] 1): 599581 and 807564 and 813072
- DLS scattering intensity ([1]; uM] 1.49996): 1081636 and 666504 and 646696
- DLS scattering intensity ([1]; uM] 2): 2657372 and 4460546 and 3577303
- DLS scattering intensity ([1]; uM] -0.500011): 732851 and 712729 and 950123
- DLS scattering intensity ([1]; uM] -1): 747604 and 1271629 and 624256
- DLS scattering intensity ([1]; uM] -1.5): 774618 and 1013605 and 787428
- MDH activity (DMSO = 100), replicate means [2]: 74.7583 and 87.0115 and 96.3724
